This is an account of results in patent US5028607A, “Bis(aryl)alkene compounds” (Adir et Compagnie, priority 1989, dated 1991).

Where a name gives a salt, the structure may show the parent alone. Read-outs that look alike come from different tables or passages of the source. Where only a bound is given, the exact number is not on record here.

For one assay, the target named is T1, 5-HT2 (Rattus norvegicus, UniProt P14842).
T1 construct: from tissue; host or cells: whole anesthetized male Sprague-Dawley rat; vasculature (blood pressure response)
The experiment in a line: 5-HT2 antagonism (inhibition of 5-hydroxytryptamine hypertensive response, anesthetized rats). The format is in vivo, rats (male Sprague-Dawley). The settings on record: iv, cumulative doses, 5-hydroxytryptamine 100 μg/kg i.v., rats pretreated with d-tubocurarine and prazosin, read-out: ID50, dose inhibiting the hypertensive response by 50%. The procedure: Male Sprague-Dawley rats (350-400 g) are anesthetized i.p. with pentobarbital (45 mg/kg). The trachea is cannulated and the animals are subjected to artificial respiration. The vagus nerves are sectioned. A catheter is placed in a carotid artery to record the arterial blood pressure. A second catheter is placed in the vein of the penis and is used for the injections. The animals' temperature is taken and is maintained at 37° C. The rats are pretreated with d-tubocurarine (1 mg/kg i.v.) and prazosin (1 mg/kg i.v.). 5-Hydroxytryptamine is injected i.v. at a dose of 100 μg/kg twice, separated by an interval of 10 minutes, so as to determine the rise in the systolic arterial blood pressure of each rat. 10 minutes later, the compounds of the invention are injected at the lowest dose and injection of 5-hydroxytryptamine is performed again 10 minutes later. 3 or 4 cumulative doses of the compounds of the invention are tested in the same manner. The percentages of the hypertensive response which are obtained at the different doses are calculated in order to determine the ID50, the dose inhibiting the hypertensive response by 50%.

The test system of another assay is α1. Briefly: α1 antagonism (inhibition of phenylephrine hypertensive response, pithed rats). The format is in vivo, rats (male Sprague-Dawley). The settings on record: cumulative doses, phenylephrine 4 g/kg i.v., Tertatolol 100 μg/kg i.v. pretreatment. From the text: α1 antagonism Male Sprague-Dawley rats (300-400 g) which have been subjected to a water diet are anesthetized with ethyl ether. A cannula is placed in the trachea. The spinal cord is destroyed by means of a steel rod and artificial respiration is instituted at once. The vagus nerves are sectioned. The carotid arteries are ligated and a catheter is placed in one of them to record the arterial blood pressure. A second catheter is placed in the vein of the penis and is used for the injections. The animals' temperature is taken and is maintained at 36° C. The rats are pretreated with a β-blocker (Tertatolol 100 μg/kg i.v.). Phenylephrine is injected at a dose of […] i.v. Two identical injections are performed, separated by an interval of 10 minutes. The compounds of the invention are injected at the lowest dose and injection of phenylephrine is performed again 10 minutes later. 3 or 4 cumulative doses of the compounds of the invention are tested in the same manner. The values for the percentage inhibition of the hypertensive response which are obtained at the different doses are calculated in order to determine the ID50.

Another assay deals with 5-hydroxytryptophan. The experiment in a line: 5-HTP antagonism (symptoms induced by 5-hydroxytryptophan). The format is in vivo, rats (female Wistar). To be noted: Rattus norvegicus. The procedure: The animals are then placed under observation in transparent cages. Three parameters are assessed in the study: "forepaw treading", "flat body posture" and "head twitches". "Forepaw treading" corresponds to a pedaling motion of the forelimbs. This parameter is measured 80 minutes after the administration of […] and during a 10-minute observation period. […] This parameter is assessed throughout the period of observation of the animals.

Where [1] appears, read: ip, 80 min, compounds intraperitoneally, 5-hydroxytryptophan 320 mg/kg by gavage, scored at 80 minutes, read-out: ED50 FPT (forepaw treading).
Setting [2] is: ip, 1.5 h, read-out: ED50 HT (head twitches).
Where [3] appears, read: ip, compounds intraperitoneally, 5-hydroxytryptophan 320 mg/kg by gavage, read-out: ED50 FBP (flat body posture).
Where [4] appears, read: po, 80 min, compounds orally, 5-hydroxytryptophan 320 mg/kg by gavage, scored at 80 minutes, read-out: ED50 FPT (forepaw treading).
Setting [5] is: po, 1.5 h, read-out: ED50 HT (head twitches).
[6] abbreviates: po, compounds orally, 5-hydroxytryptophan 320 mg/kg by gavage, read-out: ED50 FBP (flat body posture).
Setting [7] is: sc, 80 min, compounds subcutaneously, 5-hydroxytryptophan 320 mg/kg by gavage, scored at 80 minutes, read-out: ED50 FPT (forepaw treading).
The mark [8] stands for this setting: sc, compounds subcutaneously, 5-hydroxytryptophan 320 mg/kg by gavage, read-out: ED50 FBP (flat body posture).
The mark [9] stands for this setting: sc, 1.5 h, read-out: ED50 HT (head twitches).

T1 sequence (P14842 whole entry): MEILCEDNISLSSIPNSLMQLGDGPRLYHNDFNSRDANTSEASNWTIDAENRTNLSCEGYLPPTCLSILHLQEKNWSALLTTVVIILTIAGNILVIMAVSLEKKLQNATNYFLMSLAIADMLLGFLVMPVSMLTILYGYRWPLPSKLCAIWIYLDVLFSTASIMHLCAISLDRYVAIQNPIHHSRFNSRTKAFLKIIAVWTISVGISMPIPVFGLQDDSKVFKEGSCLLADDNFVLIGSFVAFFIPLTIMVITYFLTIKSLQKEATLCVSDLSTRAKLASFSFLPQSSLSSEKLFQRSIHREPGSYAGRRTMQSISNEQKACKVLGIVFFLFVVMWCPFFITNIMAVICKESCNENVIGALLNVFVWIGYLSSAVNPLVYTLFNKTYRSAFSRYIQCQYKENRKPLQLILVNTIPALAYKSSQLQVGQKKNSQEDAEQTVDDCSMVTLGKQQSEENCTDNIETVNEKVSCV

With `Cc1nc2c(C(N)=O)ncn2c(O)c1CCN1CCC(=C(c2ccc(F)cc2)c2ccc(F)cc2)CC1.Cl` [EXAMPLE 1, 3-{2-[4-[bis(4-fluorophenyl)methylene]piperidino]ethyl}-8-carbamoyl-4-hydroxy-2-methylimidazo [1,5-a]pyrimidine hydrochloride], the ED50 was 0.013 mg/kg at 5-HT2; 2.5 mg/kg in the assay on 5-hydroxytryptophan (setting [1]); 0.63 mg/kg in the assay on 5-hydroxytryptophan (setting [2]); 0.08 mg/kg with 5-hydroxytryptophan (setting [3]); 10 mg/kg in the assay on 5-hydroxytryptophan (setting [4]); over 10 mg/kg in the assay with 5-hydroxytryptophan (setting [5]). The ED50 in the assay with 5-hydroxytryptophan (setting [6]) worked out at 0.16 mg/kg. Also, the “ID50, inhibition of the hypertensive response to phenylephrine” value (“ID50, inhibition” for short) in the assay on α1 was over 5 mg/kg.

`Cl.Cl.O=C1CN2Cc3ccccc3CC2C(=O)N1CCN1CCC(=C(c2ccccc2)c2ccc(F)cc2)CC1` (centres unmarked) [EXAMPLE 2, 2-{2-[4-[(4-Fluorophenyl)phenylmethylene]piperidino]ethyl}-1,3,4,6,11,11a-hexahydro-1,3-dioxo-2H-pyrazino[1,2-b]-isoquinoline dihydrochloride]: the ED50 turned out to be 1.25 mg/kg in the assay with 5-hydroxytryptophan (setting [1]), 5 mg/kg in the assay on 5-hydroxytryptophan (setting [2]) and 1.25 mg/kg in the assay on 5-hydroxytryptophan (setting [3]).

Regarding `Cc1nc2c(C(N)=O)ncn2c(O)c1CCN1CCC(=C(c2ccccc2)c2ccc(F)cc2)CC1.Cl` [EXAMPLE 3, 8-Carbamoyl-3-{2-[4-[(4-fluorophenyl)phenylmethylene]piperidino]ethyl}-4-hydroxy-2-methylimidazo[1,5-a]-pyrimidine hydrochloride], the ED50 on 5-HT2 stood at 0.024 mg/kg; in the assay with 5-hydroxytryptophan (setting [7]), 10 mg/kg; with 5-hydroxytryptophan (setting [8]) it was 10 mg/kg. For the same molecule, in the assay with α1, the “ID50, inhibition” value is over 5 mg/kg.

As for `Cc1nc2c(C#N)ncn2c(O)c1CCN1CCC(=C(c2ccccc2)c2ccc(F)cc2)CC1.Cl` [EXAMPLE 4, 8-Cyano-3-{2-[4-[(4-fluorophenyl)phenylmethylene]piperidino]ethyl}-4-hydroxy-2-methylimidazo[1,5-a]-pyrimidine hydrochloride], the “ID50, inhibition” value in the assay on α1 is over 5 mg/kg. The ED50 stood at 1.25 mg/kg in the assay with 5-hydroxytryptophan (setting [4]), 10 mg/kg with 5-hydroxytryptophan (setting [5]) and 1.25 mg/kg in the assay on 5-hydroxytryptophan (setting [6]).

With `Cl.O=C1CN(Cc2ccccc2F)CC(=O)N1CCCN1CCC(=C(c2ccccc2)c2ccc(F)cc2)CC1` [EXAMPLE 5, 4-(2-Fluorobenzyl)-1-{3-[4-[(4-fluorophenyl)phenylmethylene]piperidino]propyl}-2,6-piperazinedione hydrochloride], on 5-HT2, the ED50 came to 0.034 mg/kg.

Consider `O=C1CN(Cc2ccccc2F)CC(=O)N1CCCN1CCC(=C2c3ccccc3-c3ccccc32)CC1` [EXAMPLE 6, 1-{3-[4-(9-Fluorenylidenyl)piperidino]propyl}-4-(2-fluorobenzyl)-2,6-piperazinedione hydrochloride], for which the ED50 was 0.039 mg/kg at 5-HT2, 5 mg/kg with 5-hydroxytryptophan (setting [4]) and 2.5 mg/kg with 5-hydroxytryptophan (setting [6]).

With `Fc1ccc(C(=C2CCN(CCCN3CCN(c4ncccn4)CC3)CC2)c2ccc(F)cc2)cc1` [EXAMPLE 7, 1-{3-[4-Bis(4-fluorophenyl)methylene]piperidino]propyl}-4-(2-pyrimidinyl)piperazine dihydrochloride], the ED50 is 5 mg/kg in the assay with 5-hydroxytryptophan (setting [7]), over 10 mg/kg in the assay on 5-hydroxytryptophan (setting [9]) and 5 mg/kg in the assay on 5-hydroxytryptophan (setting [8]).

As for `O=C1CN(Cc2ccccc2F)CC(=O)N1CCCN1CCC(C=C(c2ccc(F)cc2)c2ccc(F)cc2)C1` (centres unmarked) [EXAMPLE 8, 1-{3-[3-[2,2-bis(4-fluorophenyl)vinylene]-1-pyrrolidinyl]propyl}-4-(2-fluorobenzyl)-2,6-piperazinedione dihydrochloride], in the assay with α1, the “ID50, inhibition” value turned out to be 5.3 mg/kg.

For `Cc1nc2c(C(N)=O)ncn2c(O)c1CCCN1CCC(=C(c2ccccc2)c2ccc(F)cc2)CC1.Cl` [EXAMPLE 9, 8-Carbamoyl-3-{3-[4-[(4-fluorophenyl)phenylmethylene]piperidino]propyl}-4-hydroxy-2-methylimidazo[1,5-a]-pyrimidine hydrochloride], the “ID50, inhibition” value with α1 was over 5 mg/kg.

For `O=C1CN(Cc2ccccn2)CC(=O)N1CCCN1CCC(=C(c2ccccc2)c2ccc(F)cc2)CC1` [EXAMPLE 10, 1-{3-4-(4-Fluorophenyl)phenylmethylene]piperidino]propyl}-4-(2-pyridylmethyl)-2,6-piperazinedione dihydrochloride], the ED50 stood at 0.0082 mg/kg at 5-HT2, 1.25 mg/kg with 5-hydroxytryptophan (setting [7]), 40 mg/kg with 5-hydroxytryptophan (setting [9]) and 0.16 mg/kg in the assay with 5-hydroxytryptophan (setting [8]).

For the molecule `Cc1nc2c(C#N)ncn2c(O)c1CCN1CCC(=C(c2ccc(F)cc2)c2ccc(F)cc2)CC1` [EXAMPLE 11, 3-{2-[4-Bis(4-fluorophenyl)methylene]piperidino]ethyl}-8-cyano-4-hydroxy-2-methylimidazo[1,5-a]-pyrimidine hydrochloride], in the assay on α1, the “ID50, inhibition” value is over 5 mg/kg. Also, the ED50 amounted to 5 mg/kg in the assay on 5-hydroxytryptophan (setting [4]), 10 mg/kg with 5-hydroxytryptophan (setting [5]) and 1.25 mg/kg with 5-hydroxytryptophan (setting [6]).

For the molecule `Cc1ccc(C(=C2CCN(CCc3c(C)nc4c(C(N)=O)ncn4c3O)CC2)c2ccccc2)cc1.Cl` [EXAMPLE 13, 8-Carbamoyl-4-hydroxy-3-{2-[4-[(4-methylphenyl)-phenylmethylene]piperidino]ethyl}-2-methylimidazo[1,5-a]-pyrimidine hydrochloride], the ED50 on 5-HT2 is 0.027 mg/kg. Also, the “ID50, inhibition” value in the assay with α1 was 3.05 mg/kg.

For the molecule `Cc1nc2c(C(N)=O)ncn2c(O)c1CCN1CCCC(C=C(c2ccc(F)cc2)c2ccc(F)cc2)C1` (centres unmarked) [EXAMPLE 23, 3-{2-[3-[2,2-Bis(4-fluorophenyl)vinylene]piperidino]ethyl}-8-carbamoyl-4-hydroxy-2-methylimidazo[1,5-a]-pyrimidinehydrochloride], the “ID50, inhibition” value in the assay on α1 is over 5 mg/kg.

`Cc1nc2c(C(N)=O)ncn2c(O)c1CCN1CCC(C=C(c2ccc(F)cc2)c2ccc(F)cc2)C1` (centres unmarked) [EXAMPLE 24, 3-(3-4-2,2-Bis(4-fluorophenyl)vinyl]pyrrolidino]ethyl}-8-carbamoyl-4-hydroxy-2-methylimidazo[1,5-a]-pyrimidine hydrochloride]: the “ID50, inhibition” value in the assay on α1 is over 5 mg/kg.

In the case of `O=c1[nH]c2ccccc2c(=O)n1CCN1CCCC(=C(c2ccc(F)cc2)c2ccc(F)cc2)CC1` [EXAMPLE 25, 3-{2-[4-[Bis(4-fluorophenyllmethylene]perhydroazepin-1-yl]ethyl}-2,4-dioxo-1,2,3,4-tetrahydrocuinazoline hydrochloride], the “ID50, inhibition” value in the assay with α1 amounted to 3.05 mg/kg.
